Laboratory results from the supplement of paper PMC8671470.

Columns and labels:
Conditions in all cases: 72 h
[1] = test system: myeloid leukemia patient primary cells Pat.10; experiment: cell viability (% survival relative to DMSO control); higher = less cytotoxic
Procedure, shortened: (§1)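 Where an area under the curve appears, it was computed with the drc and PharmacoGx R packages from log-logistic fits. Those fits used four parameters. The underlying viability data came from CellTiter-Glo after 72 h, normalised to DMSO and 10 μM proteasome-inhibitor wells, with thawed, Ficoll-purified AML or CML patient mononuclear cells at 10,000 cells/well in RPMI 1640 with 10% FBS on 384-well plates pre-printed with 70 compounds at five tenfold concentrations (1–10,000 nM) in duplicate.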

[2] = test system: myeloid leukemia patient primary cells Pat.14; experiment: as above
Procedure, shortened: as §1

[3] = test system: myeloid leukemia patient primary cells Pat.1; experiment: as above
Procedure, shortened: as §1

[4] = test system: myeloid leukemia patient primary cells Pat.15; experiment: as above
Procedure, shortened: as §1

[5] = test system: myeloid leukemia patient primary cells Pat.13; experiment: as above
Procedure, shortened: as §1

[6] = test system: myeloid leukemia patient primary cells Pat.2; experiment: as above
Procedure, shortened: as §1

[7] = test system: myeloid leukemia patient primary cells Pat.4; experiment: as above
Procedure, shortened: as §1

[8] = test system: myeloid leukemia patient primary cells Pat.3; experiment: as above
Procedure, shortened: as §1

[9] = test system: myeloid leukemia patient primary cells Pat.8; experiment: as above
Procedure, shortened: as §1

[10] = test system: myeloid leukemia patient primary cells Pat.9; experiment: as above
Procedure, shortened: as §1

[11] = test system: myeloid leukemia patient primary cells Pat.12; experiment: as above
Procedure, shortened: as §1

[12] = test system: myeloid leukemia patient primary cells Pat.11; experiment: as above
Procedure, shortened: as §1

[13] = test system: myeloid leukemia patient primary cells Pat.5; experiment: as above
Procedure, shortened: as §1

[14] = test system: myeloid leukemia patient primary cells Pat.7; experiment: as above
Procedure, shortened: as §1

[15] = test system: myeloid leukemia patient primary cells Pat.6; experiment: as above
Procedure, shortened: as §1

HL-60 [16] = experiment: area under dose-response curve (viability, 1 nM-10 uM) (fraction (0-1)); higher = more sensitive
Procedure, shortened: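 A rescreen of the full library used HL-60 cells in RPMI 1640 with 10% FBS on 384-well plates, run in duplicate at five tenfold concentrations (1–10,000 nM). Each screen included DMSO or 100 nM of one of three metabolic inhibitors and ran 72 h at 37 °C, 5% CO2. CellTiter-Glo viability was scaled between DMSO and 10 μM proteasome-inhibitor wells. Any area under the curve comes from four-parameter log-logistic fits with drc and PharmacoGx.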

KG-1 = test system: KG-1
Procedure, shortened: (§2)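 Fifteen myeloid leukaemia cell lines were seeded in RPMI 1640 at a density titrated to the linear growth range. Each line went into 384-well plates with compounds acoustically pre-printed at five tenfold doses from 1 to 10,000 nM, in duplicate, and was incubated for 72 h at 37 °C with 5% CO2. Luminescent ATP viability was normalised to vehicle and to a positive control at 10 µM. The IC50 came from four-parameter log-logistic dose–response fits.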

HEL = test system: HEL
Procedure, shortened: as §2

KCL-22 = test system: KCL-22
Procedure, shortened: as §2

LAMA-84 = test system: LAMA-84
Procedure, shortened: as §2

HL-60 [17] = test system: HL-60
Procedure, shortened: as §2

THP-1 = test system: THP-1
Procedure, shortened: as §2

BV-173 = test system: BV-173
Procedure, shortened: as §2

SHI-1 = test system: SHI-1
Procedure, shortened: as §2

MOLM-13 = test system: MOLM-13
Procedure, shortened: as §2

ML-2 = test system: ML-2
Procedure, shortened: as §2

CC(=O)Nc1nc(C)c(-c2ccc(Cl)c(S(=O)(=O)NCCO)c2)s1 [PIK93]
Conditions | area under dose-response curve, co-treatment: AZD3965 100 nM | area under dose-response curve, co-treatment: DMSO vehicle | area under dose-response curve, co-treatment: GSK2194069 100 nM | area under dose-response curve, co-treatment: pictilisib 100 nM | cell viability, 1 nM [%] | cell viability, 10 nM [%] | cell viability, 100 nM [%] | cell viability, 1000 nM [%] | cell viability, 10000 nM [%]
HL-60 [16] | 0.172 | 0.135 | 0.154 | 0.181 | – | – | – | – | –
[1] | – | – | – | – | 65.9 | 22.6 | 56.6 | 60.8 | 16.8
[2] | – | – | – | – | 72.6 | 2.07 | 52.8 | 63.9 | 38.6
[3] | – | – | – | – | 83.9 | 67.2 | 62.5 | 22.1 | 12.1
[4] | – | – | – | – | 83.6 | 92.9 | 65.4 | 9.62 | 2.38
[5] | – | – | – | – | 91.2 | 35.4 | 61.6 | 54.3 | 14.4
[6] | – | – | – | – | 94.4 | 44.8 | 95.8 | 65.5 | 47.8
[7] | – | – | – | – | 97.3 | 87.1 | 72.2 | 10.6 | 6.67
[8] | – | – | – | – | 46.7 | 24 | 70.6 | 59.3 | 15.4
[9] | – | – | – | – | 86.5 | 81.9 | 87.9 | 64.2 | 48.8
[10] | – | – | – | – | 68.9 | 0.773 | 23.7 | 24.5 | 5.28
[11] | – | – | – | – | 94.1 | 92.3 | 95.9 | 88.3 | 79
[12] | – | – | – | – | 96.6 | 85.4 | 88.7 | 54.6 | 32.4
[13] | – | – | – | – | 57.4 | 2.24 | 1.33 | 17 | 1.33
[14] | – | – | – | – | 61.6 | < 0 | 63.4 | 64.1 | 22
[15] | – | – | – | – | 91.8 | 35.2 | 87.8 | 72.1 | 40.8

Conditions | IC50 (cell viability) [nM]
BV-173 | 792
HEL | 2190
HL-60 [17] | 935
KCL-22 | 1120
KG-1 | 2560
LAMA-84 | 8060
ML-2 | 607
MOLM-13 | 959
SHI-1 | 1090
THP-1 | 1510
